Some test systems named below: HCC-2998 colon; RXF 393 renal; HOP-62 NSCLC; MCF7 breast; K-562 leukemia; HCT-116 colon; MDA-MB-231 breast; OVCAR-8 ovarian; NCI-H226 lung; IGROV1 ovarian; MDA-N.
Assay in all cases: NCI tumour cell line growth inhibition, 48 h

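1) Cells in 96-well plates. 2) Compound, 48 h, 5 concentrations. 3) Linear interpolation between surrounding doses. 4) Unreached endpoint = highest concentration. The concentration for 50% growth inhibition is given as GI50. TGI is the concentration that stops growth completely.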 Where only a bound is given, the exact number is not on record here.

For the compound `COc1ccc(-c2cc(-c3ccc(OC)c(OC)c3)nc(SCCCC(=O)NO)n2)cc1`, the GI50 in the assay on HCC-2998 colon was 2.14 µM; in the assay with RXF 393 renal it was 0.587 µM; in the assay with HOP-62 NSCLC, 1.47 µM; in the assay with MCF7 breast, 2.75 µM; in the assay with K-562 leukemia, 1.11 µM; in the assay on HCT-116 colon, 0.96 µM. For the same compound, the GI50 in the assay with MDA-MB-231 breast is 1.94 µM; in the assay on OVCAR-8 ovarian it was 0.782 µM. The TGI was 5.63 µM in the assay with HCC-2998 colon; 2.5 µM in the assay on RXF 393 renal; 6.47 µM in the assay on HOP-62 NSCLC; 10.2 µM in the assay on MCF7 breast; > 100 µM with K-562 leukemia; 13.7 µM in the assay with HCT-116 colon. Moreover, the values for the TGI in the assay on MDA-MB-231 breast and in the assay with OVCAR-8 ovarian were 8.78 µM and > 100 µM, respectively.
As for `COc1ccccc1NC(=O)CSC(N)=O`, the TGI is > 100 µM with NCI-H226 lung; > 100 µM in the assay on HCC-2998 colon; 80.2 µM in the assay on HOP-62 NSCLC; > 100 µM with IGROV1 ovarian; > 100 µM in the assay on K-562 leukemia; 36.6 µM with HCT-116 colon. In the assay with OVCAR-8 ovarian, the TGI is > 100 µM.
Regarding `O=C(NCCNCCO)N/N=C/c1ccccc1`, the TGI in the assay on NCI-H226 lung, in the assay on RXF 393 renal, with IGROV1 ovarian, in the assay on K-562 leukemia, in the assay with HCT-116 colon and with OVCAR-8 ovarian was > 100 µM each time.
In the case of `C/C(=C\COP(=O)(O)OP(=O)(O)O)CC/C=C(\C)CNc1ccccc1`, the TGI in the assay on NCI-H226 lung, in the assay on RXF 393 renal, with HOP-62 NSCLC, in the assay on MCF7 breast, with IGROV1 ovarian and with K-562 leukemia was > 50 µM throughout. In addition, the TGI in the assay with HCT-116 colon, in the assay with MDA-MB-231 breast and with OVCAR-8 ovarian was > 50 µM in each case.
As for `CC(C)(C)C(=O)O[C@H]1C=C[C@@H](O)[C@@H]2[C@H]1[C@@H]1C=C[C@H]2C1`, the TGI in the assay on MDA-N is > 100 µM; in the assay with HCC-2998 colon it was 32.4 µM; with MCF7 breast, 39.9 µM; in the assay with IGROV1 ovarian, > 100 µM; in the assay with K-562 leukemia it was > 100 µM; in the assay with HCT-116 colon, > 100 µM. Also, the TGI in the assay on MDA-MB-231 breast and in the assay on OVCAR-8 ovarian was > 100 µM in each case.
`C=C(C)C(=O)O[C@H]1CC2(CO)O[C@@H]2CC/C(COC(C)=O)=C/C2OC(=O)C(=C)[C@@H]21` (some centres not stated): the TGI with NCI-H226 lung is > 100 µM; with HCC-2998 colon, > 91.6 µM; in the assay on RXF 393 renal, 26.4 µM; with HOP-62 NSCLC, > 100 µM; in the assay with MCF7 breast, 57.7 µM; in the assay on IGROV1 ovarian, > 100 µM. The TGI in the assay with K-562 leukemia is 74 µM; in the assay on HCT-116 colon, 39.4 µM; with MDA-MB-231 breast it was > 100 µM; in the assay on OVCAR-8 ovarian it was 49.8 µM.
Take `CCOC(=O)/C(C1=N[C@H](C(=O)OCC)CS1)=C(\O)c1ccccc1`: the TGI in the assay on NCI-H226 lung, with HCC-2998 colon, in the assay on RXF 393 renal, in the assay on HOP-62 NSCLC, in the assay on IGROV1 ovarian and in the assay on K-562 leukemia was > 100 µM in each case. Besides, the TGI with HCT-116 colon and in the assay on OVCAR-8 ovarian was > 100 µM throughout.
On to `Cc1ccc(S(=O)(=O)CC2CCCn3c2c(C#N)c2ccccc23)cc1` (configuration not stated), for which the TGI in the assay with NCI-H226 lung, with HCC-2998 colon, in the assay on RXF 393 renal, in the assay with HOP-62 NSCLC, in the assay on MCF7 breast and in the assay with IGROV1 ovarian was > 100 µM throughout. The TGI with K-562 leukemia, in the assay on HCT-116 colon, in the assay on MDA-MB-231 breast and in the assay on OVCAR-8 ovarian was > 100 µM throughout.
Consider `NNc1nnc(-c2ccccc2)nc1Cc1ccccc1`, for which the TGI in the assay with NCI-H226 lung was 6.43 µM; in the assay with HCC-2998 colon, > 100 µM; with RXF 393 renal it was > 100 µM; in the assay with HOP-62 NSCLC, 9.45 µM; with IGROV1 ovarian it was > 100 µM; in the assay on K-562 leukemia, > 100 µM. Further, the figures for the TGI in the assay on HCT-116 colon and with OVCAR-8 ovarian were > 100 µM and 39.1 µM, respectively.
`C/C(=N\NC(=O)c1ccncc1)c1cccc(C(F)(F)F)c1`: the TGI in the assay with MDA-N, in the assay with NCI-H226 lung, in the assay with HCC-2998 colon, with HOP-62 NSCLC, in the assay on MCF7 breast and in the assay with IGROV1 ovarian was > 10 µM in each case. For the same compound, the TGI in the assay on K-562 leukemia, in the assay with MDA-MB-231 breast and in the assay on OVCAR-8 ovarian was > 10 µM in each case.
Take `Cc1c(Cl)c(=O)oc2cc(OCC(O)COC(C)C)ccc12` (configuration not stated): the TGI with MDA-N is > 100 µM; in the assay with HCC-2998 colon, 37.3 µM; in the assay on HOP-62 NSCLC it was > 100 µM; in the assay with MCF7 breast it was 65.3 µM; in the assay with IGROV1 ovarian, > 100 µM; in the assay with K-562 leukemia, > 100 µM. Besides, the TGI with HCT-116 colon and with OVCAR-8 ovarian was > 100 µM throughout.
On to `O=C(O)Cn1ncn(NC(=O)Cc2ccccc2)c1=S`, for which the TGI with MDA-N, in the assay on HCC-2998 colon, in the assay on HOP-62 NSCLC, in the assay on MCF7 breast, in the assay with IGROV1 ovarian and with K-562 leukemia was > 10 µM throughout. Moreover, the TGI in the assay with HCT-116 colon, in the assay with MDA-MB-231 breast and in the assay with OVCAR-8 ovarian was > 10 µM each time.
As to `COc1c(-c2ccc(F)cc2)oc2cc(O)cc(O)c2c1=O`, the TGI with MDA-N was 62 µM; with HCC-2998 colon, 31.9 µM; with HOP-62 NSCLC, 38.4 µM; with MCF7 breast, > 100 µM; with IGROV1 ovarian, > 100 µM; in the assay on K-562 leukemia, > 100 µM. Further, the TGI is > 100 µM in the assay on HCT-116 colon, 43.9 µM with MDA-MB-231 breast and 69.4 µM with OVCAR-8 ovarian.
For `COC(=O)c1c(C)cccc1C1CN=NC12Cc1cccc(C)c1C2=O` (configuration not stated), the TGI was > 100 µM in the assay on MDA-N; 98.4 µM in the assay on NCI-H226 lung; > 100 µM with HCC-2998 colon; > 100 µM in the assay on RXF 393 renal; > 100 µM in the assay with HOP-62 NSCLC; > 100 µM in the assay on MCF7 breast. Besides, the TGI is > 100 µM with IGROV1 ovarian, 79.5 µM with K-562 leukemia, > 100 µM with HCT-116 colon and > 100 µM in the assay on OVCAR-8 ovarian.

The values are drawn from PubChem BioAssay (NCI).
